Source: PMC4210890, “Suvanine Sesterterpenes from a Tropical Sponge Coscinoderma sp. Inhibit Isocitrate Lyase in the Glyoxylate Cycle” (Marine Drugs, 2014)
In brackets after ≈: the same amount, converted by molar mass. Several values for one entry are separate records, joined by “and”; a condition that tells them apart may be missing. Equal values may be shown once. Read-outs that look alike come from different tables or passages of the source.

Tests used:
ICL from C. albicans = ICL from C. albicans (Candida albicans, UniProt Q9P8Q7); assay: biochemical; type: biochemical; conditions: for type of inhibition: Lineweaver and Burk plot at IC50 or twofold IC50; for reversibility of binding to enzyme: enzyme activity recovered by dialysis within 2 h
Sequence of ICL from C. albicans (Q9P8Q7 whole entry): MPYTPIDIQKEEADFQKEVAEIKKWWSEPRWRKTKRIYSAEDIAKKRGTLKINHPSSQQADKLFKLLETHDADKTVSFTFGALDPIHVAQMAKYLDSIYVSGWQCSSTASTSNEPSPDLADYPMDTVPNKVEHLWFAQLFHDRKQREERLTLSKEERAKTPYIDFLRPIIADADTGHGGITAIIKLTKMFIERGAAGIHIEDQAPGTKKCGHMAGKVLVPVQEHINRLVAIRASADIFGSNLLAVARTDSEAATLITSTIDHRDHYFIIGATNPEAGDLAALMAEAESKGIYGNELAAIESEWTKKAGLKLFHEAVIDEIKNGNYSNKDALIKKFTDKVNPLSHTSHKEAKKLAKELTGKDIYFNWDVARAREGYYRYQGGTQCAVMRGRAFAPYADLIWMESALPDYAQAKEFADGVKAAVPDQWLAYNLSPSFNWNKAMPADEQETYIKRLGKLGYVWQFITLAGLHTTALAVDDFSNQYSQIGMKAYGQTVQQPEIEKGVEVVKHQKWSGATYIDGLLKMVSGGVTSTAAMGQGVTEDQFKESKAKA
Protocol: To determine the type of inhibition, kinetic studies were performed with compounds 1, 2 and 4 at IC50 or twofold IC50 based on Lineweaver and Burk plot (Figure 3). Inhibitor constants were obtained by Dixon plot.
Figure 3 Lineweaver-Burk plot of ICL inhibition by compounds 1, 2 and 4. [S], substrate concentration [mM]; V, reaction velocity (∆absorbance unit/min). Each data point represents the mean of three experiments.

[1] = molecular target: T1, recombinant ICL from C. albicans ATCC 10231 (Candida albicans, UniProt Q9P8Q7); assay: biochemical
T1 construct: thioredoxin (fusion partner of the pBAD/Thio-TOPO vector); made in house; host or cells: Escherichia coli TOP10
T1 sequence (Q9P8Q7 whole entry, the tested form may be a part): as the sequence (Q9P8Q7 whole entry) above
Protocol: Compound 1−9 were obtained as mentioned previously (Figure 1). The expression and purification of recombinant ICL from the genomic DNA of C. albicans (ATCC 10231) were carried out by a method described previously. The inhibitory effects of the isolated compounds on ICL were evaluated according to a procedure documented previously. The basic concept of this method was to measure spectrophotometrically the formation of glyoxylate phenylhydrazone in the presence of phenylhydrazine and isocitrate. The effect of the inhibitor on ICL was calculated as a percentage relative to dimethyl sulfoxide (DMSO)-treated control. Mixture of ICL, substrate, phenyhydrazine was incubated for 30 min with various concentrations of suvanine sesterterpenes (100 to 0.1 μg/mL). The formation of glyoxylate phenylhydrazone was followed spectrophotometrically at 324 nm. Data were scaled to internal controls, and a four- parameter logistic model (GraphPad ver. 5.0, Prism) was used to fit the measured data and determine IC50 (inhibitory concentration for 50% activity) values.
The preparation of recombinant ICL protein from the genomic DNA of C. albicans ATCC 10231 was carried out using a method described previously. Briefly, ICL was PCR-amplified using two synthetic primers: 5′-[…]-3′ (forward) and 5′-[…]-3′ (reverse). The PCR product was cloned into the pBAD/Thio-TOPO vector (Invitrogen, Carlsbad, CA, USA) and transformed into Escherichia coli TOP10 (Invitrogen).
The effect of isolated compounds on ICL was evaluated according to a procedure documented previously. A 1-mL aliquot of the reaction mixture contained 20 mM sodium phosphate buffer (pH 7.0), 1.27 mM threo-DL (+) isocitrate, 3.75 mM MgCl2, 4.1 mM phenylhydrazine and 2.5 μg/mL purified ICL. The reaction was performed at 37 °C for 30 min with and without a prescribed concentration of the inhibitor dissolved in DMSO (final concentration, 0.5%). The formation of glyoxylate phenylhydrazone was followed spectrophotometrically at 324 nm. The effect of the inhibitor on ICL was calculated as a percentage relative to the solvent-treated control. A 12-point, twofold serial dilution dose–response assay was performed in triplicate. The resultant dose–response concentration range was 100 to 0.1 μg/mL of inhibitor in a 1-mL final reaction volume. Data were scaled to internal controls, and a four-parameter logistic model (GraphPad ver. 5.0, Prism) was used to fit the measured data and determine the IC50 values. The ICL inhibitor 3-nitropropionate was used as a positive control. Protein concentration was determined by the method of Bradford using the Bio-Rad protein assay kit (Bio-Rad, Hercules, CA, USA) and bovine serum albumin as a standard.

C. albicans SC5314 = assay: In vitro growth assay (MIC) in YNB broth with glucose or acetate; type: cell-based, Candida albicans; conditions: 3 days at 28 °C; for MIC: Candida albicans, 72 h
Protocol: The microbial strategy for survival during growth in a nutrient-free environment entails a metabolic shift in the carbon source to C2 substrates generated by β-oxidation of fatty acids. […] To investigate whether ICL inhibitors affected C2 substrate use, we cultured C. albicans strain SC5314 in YNB broth containing either 2% glucose or 2% potassium acetate as the sole carbon source, and inhibition was evaluated based on the MIC.
C. albicans strains were grown in YNB ([…] yeast nitrogen base) broth containing 2% glucose at 28 °C for 24 h, harvested by centrifugation, and washed twice with sterile distilled water. Each test compound was dissolved in DMSO and diluted with YNB containing 2% glucose or 2% potassium acetate to prepare serial twofold dilutions in the range 100–0.1 μg/mL. The final DMSO concentration was maintained at 0.5% by adding DMSO to the medium. Twenty microliters of the broth containing test fungus was added to each well of a 96-well microtiter plate (final concentration of 1 × 10^4 cells/mL). Culture plates were incubated for 3 days at 28 °C. […] Amphotericin B was used as a reference compound.

[2] = test system: ICL mRNA expression in C. albicans; assay: Semi-quantitative RT-PCR analysis of ICL mRNA expression; type: cell-based, Candida albicans; conditions: acetate medium
[3] = test system: C. albicans strain SC5314 (wild-type), MRC10 (Δicl), and MRC11 (Δicl + ICL); assay: Growth phenotype of wild-type and ICL deletion mutants on YNB agar plates; type: cell-based, Candida albicans; conditions: 12.5 μg/mL, 3 days at 28 °C
[4] = YNB broth with 2% glucose, read-out: MIC, Glucose
[5] = YNB broth with 2% potassium acetate, read-out: MIC, Acetate
[6] = recombinant ICL from C. albicans ATCC 10231, 37 °C, 30 min, mean ± SD (n = 3), read-out: ICL IC50
[7] = recombinant ICL from C. albicans ATCC 10231, value in parentheses, read-out: ICL IC50
[8] = YNB broth with 2% potassium acetate
[9] = recombinant ICL from C. albicans ATCC 10231, value in parentheses

Row | Structure (SMILES) | IC50 ([1]; ICL IC50) | MIC (C. albicans SC5314; [4]) | MIC (C. albicans SC5314; [5]) | IC50 [1, 6] | other results
1 | CC1(C)CCC[C@]2(C)[C@H]3CC/C(=C\OS(=O)(=O)[O-])[C@H](CCC4=CC(=O)OC4)[C@@]3(C)CC[C@@H]12.[Na+] [Compound 4] | 26.3 µM and 26.2 µM | > 100 µg/mL | 100 µg/mL |  | Ki (ICL from C. albicans): 62.6 µM; type of inhibition (ICL from C. albicans): mixed noncompetitive inhibitors; reversibility of binding to enzyme (ICL from C. albicans): reversible
2 | C[C@@H]1[C@H](O)[C@@H](C)/C=C/C=C/C=C/C=C/C=C/C=C/C=C/[C@H](O[C@@H]2O[C@H](C)[C@@H](O)[C@H](N)[C@@H]2O)C[C@@H]2O[C@](O)(C[C@@H](O)C[C@@H](O)[C@H](O)CC[C@@H](O)C[C@@H](O)CC(=O)O[C@H]1C)C[C@H](O)[C@H]2C(=O)O [Amph B, Amphotericin B, reference compound] |  | 1.56 µg/mL (≈ 1.69 µM) | 0.39 µg/mL (≈ 0.422 µM) |  | 
3 | CO[C@H]1C=C(CC[C@H]2/C(=C/OS(=O)(=O)[O-])CC[C@H]3[C@]2(C)CC[C@H]2C(C)(C)CCC[C@]32C)C(=O)O1.[Na+] [Compound 6] |  | > 100 µg/mL | 100 µg/mL | 96.2 ± 1.54 µM | IC50 [1, 7]: 96.08 ± 0.799 µM
4 | CO[C@H]1C=C(CC[C@H]2/C(=C/OS(=O)(=O)[O-])CC[C@H]3[C@]2(C)CC[C@H]2C(C)(C)CCC[C@]32C)[C@@H](OC)O1.[Na+] [Compound 7] | 59.1 µM and 51.1 µM | > 100 µg/mL | > 100 µg/mL |  | 
5 | CC1(C)CCC[C@]2(C)[C@H]3CC/C(=C\OS(=O)(=O)[O-])[C@H](CCC4=CCNC4=O)[C@@]3(C)CC[C@@H]12.[Na+] [Compound 9] |  | > 100 µg/mL | > 100 µg/mL | 59.2 ± 1.11 µM | IC50 [1, 7]: 59.1 ± 0.54 µM
6 | CC1(C)CCC[C@]2(C)[C@H]3CC/C(=C\OS(=O)(=O)[O-])[C@H](CCc4ccoc4)[C@@]3(C)CC[C@@H]12.C[N+](C)=C(N)N [Compound 1, suvanine salt] |  |  |  |  | type of inhibition (ICL from C. albicans): uncompetitive inhibitor; reversibility of binding to enzyme (ICL from C. albicans): reversible; Ki (ICL from C. albicans; obtained by Dixon plot, read-out: Ki (inhibitor constant)): 17.4 µM; ICL IC50 [1]: 22.43 ± 1.49 (12.03 ± 0.80) µg/mL; IC50 ([1]; read-out: ICL IC50): 22.4 µM; MIC, Glucose (C. albicans SC5314; YNB broth with 2% glucose): 100 µg/mL; MIC, Acetate (C. albicans SC5314; [8]): 25 µg/mL
7 | CC1(C)CCC[C@]2(C)[C@H]3CC/C(=C\OS(=O)(=O)[O-])[C@H](CCc4ccoc4)[C@@]3(C)CC[C@@H]12.[Na+] [Compound 2, suvanine salt] | 6.35 µM | 100 µg/mL | 12.5 µg/mL |  | Ki (ICL from C. albicans): 14.4 µM; type of inhibition (ICL from C. albicans): mixed noncompetitive inhibitors; reversibility of binding to enzyme (ICL from C. albicans): reversible; reduction of ICL mRNA expression ([2]; 12.5 μg/mL, 4 h at 28 °C, densitometric analysis): seventeenfold; ICL transcript levels with increasing compound concentration ([2]; SC5314 and MRC11, 6.25 and 12.5 µg/mL): diminished with increasing compound 2 concentrations; MIC, Acetate (C. albicans SC5314; [8]): 12.5 µg/mL; growth on YNB agar plates containing glucose plus compound ([3]; SC5314, MRC10, MRC11, 2% glucose): grew normally; growth on YNB agar plates containing acetate plus compound ([3]; all tested strains, 2% sodium acetate): inhibited markedly
8 | C=C(CC(=O)O)C(=O)O [Itaconate, itaconate, reference compound] |  | > 100 µg/mL | > 100 µg/mL |  | 
9 | CC1(C)CCC[C@]2(C)[C@H]3CC/C(=C\OS(=O)(=O)[O-])[C@H](CCC4=CC(=O)O[C@@H]4O)[C@@]3(C)CC[C@@H]12.[Na+] [Compound 3] |  | > 100 µg/mL | > 100 µg/mL | 56.2 ± 7.1 µM | ICL IC50 [1, 9]: 28.33 ± 3.58 µg/mL
10 | CO[C@@H]1C=C(CC[C@H]2/C(=C/OS(=O)(=O)[O-])CC[C@H]3[C@]2(C)CC[C@H]2C(C)(C)CCC[C@]32C)C(=O)O1.[Na+] [Compound 5] |  | > 100 µg/mL | > 100 µg/mL | 50.2 ± 6.27 µM | IC50 [1, 7]: 50.2 ± 3.25 µM
11 | O=C(O)CC[N+](=O)[O-] [Compound 3-NP, 3-Nitropropinate, reference compound] |  |  |  | 17.3 ± 1.04 µM | ICL IC50 [1, 9]: 2.06 ± 0.12 µg/mL; MIC, Glucose (C. albicans SC5314; YNB broth with 2% glucose): >100 µg/mL; MIC, Acetate (C. albicans SC5314; [8]): >100 µg/mL
12 | CO[C@@H]1O[C@H](OC)[C@](O)(CC[C@H]2/C(=C/OS(=O)(=O)O)CC[C@H]3[C@]2(C)CC[C@H]2C(C)(C)CCC[C@]32C)[C@H]1O [Compound 8] | 67.6 µM | > 100 µg/mL | > 100 µg/mL |  | 
